According to US20200339691A1, “PROTEINACEOUS MOLECULES AND USES THEREFOR” (priority 2018, published 2020):
Where a SMILES comes first, the peptide text is derived from it. The star is where a group is joined. Myristoyl = CCCCCCCCCCCCCC(=O)*

Legend:
[1] = system: CD44^hiCD24^lo CSCs in MDA-MB-231 cells; test: FACS analysis of CD44^hiCD24^lo cancer stem cells in MDA-MB-231 cells treated with P1 analogues; type: cell-based, human; conditions: for Inhibition of CSCs (%) Repeat 1 / Inhibition of CSCs (%) Repeat 2 / Inhibition of CSCs (%) Repeat 3 / CD44^hiCD24^lo CSCs (%) / COI, Live Single CD44^hiCD24^lo CSCs (Cell Count) / Average Inhibition of CSCs (%) / CD44^hiCD24^lo CSCs (%) Repeat 1 / CD44^hiCD24^lo CSCs (%) Repeat 2 / CD44^hiCD24^lo CSCs (%) Repeat 3: 50 μM peptide, 48 hours; for CD44^hiCD24^lo CSCs (%) / COI, Live Single CD44^hiCD24^lo CSCs (Cell Count): n = 1; for Average Inhibition of CSCs (%) / CD44^hiCD24^lo CSCs (%) Repeat 1 / CD44^hiCD24^lo CSCs (%) Repeat 2 / CD44^hiCD24^lo CSCs (%) Repeat 3: n = 3
Experimental: Analogues of P1 (Table 6) were designed and synthesized in accordance with the procedure of Example 5. The ability of these analogues to inhibit cancer stem cells was determined using FACS analysis on MDA-MB-231 cells, which constitutively contain approximately 90% CD44^hiCD24^lo cancer stem cells, treated with the peptides.
(§1) Non-adherent cells were removed during the washing steps.

MDA-MB-231 cells = type: cell-based, human; conditions: for COI (Cell Count) / COI, Live Single Cells (Cell Count) / COI, Single (Cell Count) / Total Cell Count: 50 μM peptide, 48 hours, n = 1
Excerpt: as §1

[2] = system: CD44^hiCD24^lo CSCs in MCF7 cells; test: FACS analysis of CD44^hiCD24^lo CSCs in MCF7 cells; type: cell-based, human; conditions: 50 μM peptide, 48 hours
Experimental: (§2) P1 Analogues were synthesized in accordance with the procedure of Example 5. 4×10^4 MDA-MB-231 cells or 1×10^4 induced or non-induced MCF7 cells were seeded in a 12 well plate with 1 mL complete media overnight. Induced MCF7 cells were prepared by stimulating cells with PMA/TGF-β and incubating for 12 hours. Cells were treated with 50 μM test peptide (dissolved in water) for 48 hours. Cells were then washed twice with 1 mL PBS and harvested by trypsinisation. Non-adherent cells were removed during the washing steps. Adherent cells were collected, and were subsequently stained with anti-human CD44, CD24 and Hoechst 33342 antibodies on ice for 30 mins. FACS was performed on BD FACS LSRII to measure the percentage of CD44^hiCD24^lo CSCs by dividing CD44^hiCD24^lo events by total live cell counts (Hoechst negative population) (as described in Fillmore and Kuperwasser (2007) Breast Cancer Res, 9: 303). The percentage of viable cells was calculated by dividing total live cell events by total single cells as described previously (Siemann and Keng (1986), Cancer Res, 46: 3556-3559).

MCF7 cells = conditions: MCF7 cells, 50 μM peptide, 48 hours
Experimental: as §2

induced MCF7 cells = test: FACS CSC inhibition in induced MCF7 cells; type: cell-based, human; conditions: induced MCF7 cells (PMA/TGF-β), 50 μM peptide, 48 hours
Experimental: as §2
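Throughout, for COI, Live Single Cells (Cell Count): live means Hoechst-negative events among single cells.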

Structure (SMILES) | Inhibition of CSCs (%) Repeat 1 [1] [%] | Inhibition of CSCs (%) Repeat 2 [1] [%] | Inhibition of CSCs (%) Repeat 3 [1] [%] | CD44^hiCD24^lo CSCs (%) [1] [%] | COI, Live Single CD44^hiCD24^lo CSCs (Cell Count) [1] | Average Inhibition of CSCs (%) [1] [%] | CD44^hiCD24^lo CSCs (%) Repeat 1 [1] [%] | CD44^hiCD24^lo CSCs (%) Repeat 2 [1] [%] | CD44^hiCD24^lo CSCs (%) Repeat 3 [1] [%] | COI (Cell Count) (MDA-MB-231 cells) | COI, Live Single Cells (Cell Count) (MDA-MB-231 cells) | COI, Single (Cell Count) (MDA-MB-231 cells) | Total Cell Count (MDA-MB-231 cells) | further results
CCCCCCCCCCCCCC(=O)N[C@H](C(=O)N[C@@H](Cc1ccccc1)C(=O)N[C@H](C(=O)N[C@@H](Cc1ccccc1)C(=O)N[C@@H](CCCNC(=N)N)C(=O)N[C@@H](CC(C)C)C(=O)N[C@@H](CCCNC(=N)N)C(=O)N[C@@H](C)C(=O)NCC(=O)N[C@@H](CCCNC(=N)N)C(=O)N[C@@H](CCSC)C(=O)N[C@@H](CCSC)C(=O)N[C@@H](CC(=O)O)C(=O)N[C@H](C(=O)N[C@@H](CCCCN)C(=O)N[C@@H](CCCCN)C(N)=O)C(C)C)[C@@H](C)CC)[C@@H](C)O [Peptide 2815309, Myristoyl-TFIFRLRAGRMMDVKK-NH2] (Myristoyl-TFIFRLRAGRMMDVKK-NH2) | 100.00 | 100.00 | 100.00 | 0.00 | 1 | 100.00 | 0.00 | 0.00 | 0.00 | 74 | 1 | 71 | 4158 | ability to inhibit cancer stem cells (CD44^hiCD24^lo CSCs) ([1]; in words): retained the ability to inhibit cancer stem cells; killing of total MDA-MB-231 cells (MDA-MB-231 cells; not only the CSCs): killed the majority of the total MDA-MB-231 cells; CD44^hiCD24^lo CSC % [2]: 3.35%; COI/Single Cells/Live/CD44^hiCD24^lo CSCs Count [2]: 134; COI Count (MCF7 cells): 5425; COI/Single Cell Count (MCF7 cells): 4124; COI/Single Cells/Live Count (MCF7 cells): 4000; Total Count (MCF7 cells): 10000; CSC inhibition (%) (induced MCF7 cells): 52.46%
CCCCCCCCCCCCCC(=O)N[C@@H](CC(C)C)C(=O)N[C@H](C(=O)N[C@@H](Cc1ccccc1)C(=O)N[C@H](C(=O)N[C@@H](Cc1ccccc1)C(=O)N[C@@H](CCCNC(=N)N)C(=O)N[C@@H](CC(C)C)C(=O)N[C@@H](CCCNC(=N)N)C(=O)N[C@@H](CCCCN)C(=O)NCC(=O)N[C@@H](CCCNC(=N)N)C(=O)N[C@@H](CCSC)C(=O)N[C@@H](CCSC)C(=O)N[C@@H](CC(=O)O)C(=O)N[C@H](C(=O)N[C@@H](Cc1ccc(O)cc1)C(=O)N[C@@H](CCCCN)C(N)=O)C(C)C)[C@@H](C)CC)[C@@H](C)O [Peptide 2853843, Myristoyl-LTFIFRLRKGRMMDVYK-NH2] (Myristoyl-LTFIFRLRKGRMMDVYK-NH2) | 87.60 | 82.06 | 90.31 | 7.50 | 6 | 86.66 | 11.11 | 16.09 | 8.70 | 402 | 80 | 298 | 9152 | 
CCCCCCCCCCCCCC(=O)N[C@@H](CC(C)C)C(=O)N[C@H](C(=O)N[C@@H](Cc1ccccc1)C(=O)N[C@H](C(=O)N[C@@H](Cc1ccccc1)C(=O)N[C@@H](CCCNC(=N)N)C(=O)N[C@@H](CC(C)C)C(=O)N[C@@H](CCCNC(=N)N)C(=O)N[C@@H](CCCCN)C(=O)NCC(=O)N[C@@H](CCCNC(=N)N)C(=O)N[C@@H](CCSC)C(=O)N[C@@H](CCSC)C(=O)N[C@@H](CC(=O)O)C(=O)N[C@H](C(=O)N[C@@H](CCCCN)C(=O)N[C@@H](CCCNC(=N)N)C(N)=O)C(C)C)[C@@H](C)CC)[C@@H](C)O [Peptide 2853844, Myristoyl-LTFIFRLRKGRMMDVKR-NH2] (Myristoyl-LTFIFRLRKGRMMDVKR-NH2) | 80.13 | 89.73 | 78.08 | 10.61 | 7 | 82.65 | 17.81 | 9.21 | 19.67 | 147 | 66 | 101 | 2094 | 
CCCCCCCCCCCCCC(=O)N[C@@H](CC(C)C)C(=O)N[C@H](C(=O)N[C@@H](Cc1ccccc1)C(=O)N[C@H](C(=O)N[C@@H](Cc1ccccc1)C(=O)N[C@@H](CCCNC(=N)N)C(=O)N[C@@H](CC(C)C)C(=O)N[C@@H](CCCNC(=N)N)C(=O)N[C@@H](CCCCN)C(=O)NCC(=O)N[C@@H](CCCNC(=N)N)C(=O)N[C@@H](CCSC)C(=O)N[C@@H](CCSC)C(=O)N[C@@H](CC(=O)O)C(=O)N[C@H](C(=O)N[C@@H](CCCCN)C(=O)N[C@@H](CCC(=O)O)C(N)=O)C(C)C)[C@@H](C)CC)[C@@H](C)O [Peptide 2853845, Myristoyl-LTFIFRLRKGRMMDVKE-NH2] (Myristoyl-LTFIFRLRKGRMMDVKE-NH2) | 15.69 | 19.72 | 17.64 | 65.10 | 2612 | 17.69 | 75.56 | 72.02 | 73.91 | 4600 | 4012 | 4111 | 5598 | 
CCCCCCCCCCCCCC(=O)N[C@@H](CC(C)C)C(=O)N[C@H](C(=O)N[C@@H](Cc1ccccc1)C(=O)N[C@H](C(=O)N[C@@H](Cc1ccccc1)C(=O)N[C@@H](CCCNC(=N)N)C(=O)N[C@@H](CC(C)C)C(=O)N[C@@H](CCCNC(=N)N)C(=O)N[C@@H](CCCCN)C(=O)NCC(=O)N[C@@H](CCCNC(=N)N)C(=O)N[C@@H](CCSC)C(=O)N[C@@H](CCSC)C(=O)N[C@@H](CC(=O)O)C(=O)N[C@H](C(=O)N[C@@H](CCCCN)C(=O)N[C@@H](CC(C)C)C(N)=O)C(C)C)[C@@H](C)CC)[C@@H](C)O [Peptide 2853846, Myristoyl-LTFIFRLRKGRMMDVKL-NH2] (Myristoyl-LTFIFRLRKGRMMDVKL-NH2) | 61.79 | 63.60 | 62.39 | 27.88 | 87 | 62.59 | 34.25 | 32.66 | 33.75 | 370 | 312 | 330 | 10000 | 
CCCCCCCCCCCCCC(=O)N[C@@H](CC(C)C)C(=O)N[C@H](C(=O)N[C@@H](Cc1ccccc1)C(=O)N[C@H](C(=O)N[C@@H](Cc1ccccc1)C(=O)N[C@@H](CCCNC(=N)N)C(=O)N[C@@H](CC(C)C)C(=O)N[C@@H](CCCNC(=N)N)C(=O)N[C@@H](CCCCN)C(=O)NCC(=O)N[C@@H](CCCNC(=N)N)C(=O)N[C@@H](CCSC)C(=O)N[C@@H](CCSC)C(=O)N[C@@H](CC(=O)O)C(=O)N[C@H](C(=O)N[C@@H](CCCCN)C(=O)N[C@@H](Cc1ccc(O)cc1)C(N)=O)C(C)C)[C@@H](C)CC)[C@@H](C)O [Peptide 2853847, Myristoyl-LTFIFRLRKGRMMDVKY-NH2] (Myristoyl-LTFIFRLRKGRMMDVKY-NH2) | 25.89 | 27.27 | 26.71 | 62.59 | 2640 | 26.62 | 66.42 | 65.25 | 65.76 | 5345 | 4218 | 4268 | 10000 | 
